Test results from US6881705B2, “Fungicidal composition and use of this composition for controlling plant diseases” (Bayer Cropscience S.A., priority 2001, dated 2005).

What was measured:
Geotrichum candidum = test: in vitro control of Geotrichum candidum on PDA medium (colony diameter in microtitre plate wells); type: cell-based; settings: 60 ppm in PDA medium; for Radial growth of the fungus (mm): 22° C., untreated control 15 mm; for Efficacy (%): colony diameter versus untreated control
Protocol: This example gives an illustration of the efficacy of a composition according to the invention for controlling Geotrichum candidum, this trial was carried out in vitro. The fungicidal compositions are used in solution at the doses detailed in Table 1. […] 1 day later, a microdrop of an aqueous suspension of Geotrichum candidum spores, supplemented with 400 ppm of Tween 20, is brought to the surface of each well of the microtitre plate. The cultures are then incubated at 22° C., 60% relative humidity, under subdued light until the control culture (without fungicide) has covered the entire surface of the well. The diameter of each colony is then measured and, in comparison with the untreated control, a percentage efficacy is calculated using the following formula: (diameter of the control−diameter of the trial)/diameter of the control×100.

Gloeosporium spp. = test: in vivo trial combating Gloeosporium spp. on apples (Golden variety, preventive sprinkling)
Protocol: This example proposes to give an illustration of the efficacy of a composition according to the invention for combating Gloeosporium spp. on apples, this trial was carried out in vivo. The fungicidal compositions are used in solution at the doses detailed in Table 2. Apples of the Golden variety, untreated after harvest, are treated by sprinkling a fungicidal solution up to the run-off limit at the doses described in Table 2 of results (8 apples per product). 6 hours later, the fruit are inoculated by sprinkling an aqueous suspension at 150 000 spores/ml of Gloeosporium spp. obtained from a preculture on PDA medium. This inoculation by sprinkling is carried out up to the run-off limit. The fruit are then stored in the dark at 20° C., 100% relative humidity and the scores for the disease start 3 weeks later, for a period of 2 weeks. The number of fruit affected by rot are counted and, in comparison with the untreated control, a percentage efficacy is calculated using the following formula: […].

Compound	Radial growth of the fungus (mm) (Geotrichum candidum)	Efficacy (%) (Geotrichum candidum)	Efficacy (%) (Gloeosporium spp.; 375 ppm, sprinkled on Golden apples 6 hours before inoculation, rot versus untreated control)	Efficacy (%) (Gloeosporium spp.; 75 ppm)
C=CCOC(Cn1ccnc1)c1ccc(Cl)cc1Cl (stereo not drawn) [Imazalil, imazalil]	14	7	−29.2	
Cc1cc(C)nc(Nc2ccccc2)n1 [Pyrimethanil, pyrimethanil]	15	0		14.9
